Results from PubChem BioAssay (NCI).
Several values for one entry are separate records, joined by “and”; a condition that tells them apart may be missing. Equal entries are not always repeated.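 Briefly, cells in 96-well plates were exposed to five compound concentrations for 48 h, and endpoints were estimated by linear interpolation. GI50: concentration for 50% inhibition of growth. TGI: concentration producing complete growth inhibition.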

Tested on: MDA-MB-468 breast
Assay: NCI-60 cell line screen, 48 h

Compound	GI50	TGI
CCCCS(=O)(=O)c1cc(Nc2ccc(O)c3c2C(=O)c2ccccc2C3=O)ccc1C	88.3 µM	> 100 µM
COc1cccc(C2C(C#N)=C(N)Oc3cc(OCCCCCC[P+](c4ccccc4)(c4ccccc4)c4ccccc4)ccc32)c1 (stereo unspecified)	0.222 µM	0.611 µM
CCOc1ccc2cc(-c3nn(CC4CCN(C)CC4)c4ncnc(N)c34)ccc2c1	14.5 µM	32.2 µM
CC(C)(O)c1cc(Nc2cc(Oc3cn(C4CC4)nc3C3CCOCC3)ccn2)ccn1	30.6 µM	> 100 µM
CN(CCOc1ccc(NS(C)(=O)=O)cc1)CCc1ccc(NS(C)(=O)=O)cc1	> 100 µM	> 100 µM
COc1ccc(CN2c3ccccc3Sc3ccccc32)cc1O	0.531 µM	12.3 µM
Cn1cc(-c2csc(-c3ccc(Cl)cc3)n2)c2cccnc21	10.5 µM	31.1 µM
COc1ccc(/C=C(\C#N)c2cc(OC)c(OC)c(OC)c2)cc1	0.0222 µM	2.52 µM
C=C1C(=O)O[C@@H]2C[C@@H](C)[C@@H]3C=CC(=O)[C@@]3(C)[C@@H](OC(=O)CCCC(=O)O[C@H]3[C@@H]4C(=C)C(=O)O[C@@H]4C[C@@H](C)[C@@H]4C=CC(=O)[C@]43C)[C@H]12	0.0143 µM	0.0328 µM
Fc1ccc(-c2ncn(C3CCNCC3)c2-c2ccnc(Oc3ccc(Cl)cc3)n2)cc1	1.78 µM	5.36 µM
COc1ccc(C2=NNC(c3sc(Cl)nc3Cl)C2)cc1 (stereo unspecified)	2.6 µM	8.19 µM
CCN(CC)c1ccc(/C=N/N=C(N)N)cc1	1.88 µM	6.61 µM
CC(=O)c1nc(-c2ccc(C[C@@H](CNC(=O)CN(C)C)NC(=O)c3ccc(OC(C)C)c(Cl)c3)cc2)cn1C	0.0399 µM	14.3 µM
CSCc1ncc(-c2ccc(C(F)(F)F)cc2)c(NC2CCCCCC2)n1	> 10 µM	> 10 µM
CCS(=O)(=O)c1cccc(-c2cc(C(=O)NC3CCN(C)CC3)c(C)c3[nH]c4ncc(C)cc4c23)c1	0.192 µM and 0.0869 µM	2.69 µM and 0.47 µM
COc1ccc(C2C3=C(COC3=O)Oc3cc4c(cc32)OCO4)cc1OC (stereo unspecified)	4.7 µM	> 100 µM
COc1cc(C2CC(c3ccc(Cl)cc3)=NN2C(C)=O)ccc1Oc1ccnc2cc(Cl)ccc12 (stereo unspecified)	4.22 µM	> 100 µM
N#C/C(=C/C=C/c1cccc(Cl)c1)S(=O)c1ccccc1 (stereo unspecified)	0.258 µM	0.758 µM
